Measured values as given in patent publication US10993983B2, “Cyclic peptide epitopes and small-molecule mimics for inducing autophagy” (TRUSTEES OF TUFTS COLLEGE, priority 2016, dated 2021).
Marks after values point to notes of the source that are not given here. Bridges are numbered along the chain shown (N, C = ends). Where no end group is shown, it is not given here. [ ]: non-standard residue; d: D form. MP = not defined here

Key:
[1] = tested on: p62; test: p62 degradation assay (p62/actin immunoblot);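 as to Activity (μM) 10, p62/actin assay activity: HeLa cells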;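 as to Activity (μM) 100, p62/actin assay activity: HeLa cells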;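 as to Activity (μM) 20, p62/actin assay activity: HeLa cells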;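 as to Activity (μM) 30, p62/actin assay activity: HeLa cells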;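 as to Activity (μM) 50, p62/actin assay activity: HeLa cells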; type: cell-based; design: key: −: activity not reported; 0: decreased vs. WT; +: similar to WT; ++: modest increase vs. WT; +++: significant increase vs. WT; settings: for Activity (μM) 30, p62/actin assay activity: 30 μM; for Activity (μM) 50, p62/actin assay activity: 50 μM; for Activity (μM) 10, starred cell, p62/actin assay activity: Table 8, 10 μM marked * (footnote: data taken at 20 instead of 30 μM); for Activity (μM) 100, p62/actin assay activity: 100 μM; for Activity (μM) 10, p62/actin assay activity: 10 μM
Procedure: (§1) Cells were treated with peptide in OPTI-MEM (Thermo Scientific) acidified with 0.15% (v/v) 6N HCl for 3 hour. Cells were rinsed with Dulbecco's phosphate buffered saline (PBS) and lysed in lysis buffer (20 mM HEPES, 150 mM NaCl, 1 mM EDTA, 1% Triton X-100, protease inhibitor cocktail (Roche) on ice for 1 hour. Cell lysates were centrifuged at 16,000 g for 10 min at 4° C. and analyzed by SDS-PAGE and transferred to PVDF membranes. The membranes were blocked 5% non-fat dry milk (NFDM) in PBST (PBS+0.05% Tween-20) for 1 hour, then incubated overnight at 4° C. with primary antibody in 5% NFDM in PBST. The blots were washed with PBST and incubated with HRP-conjugated secondary antibodies diluted in 5% NFDM in PBST for 1 hour at room temperature. Membranes were washed with PBST and visualized with SuperSignal West Pico Chemiluminescent Substrate (Thermo Scientific). Semi-quantitative results were obtained by noting the lowest concentration at which both p62 degradation and LC3-I to LC3-II conversion were observed.
(§2) Compounds 1-10 were evaluated using the assays described in Examples 4 and 5. Activity for each compound was measured in the p62 degradation assay and the LC3 marker assay as described herein. The activity at each concentration of peptide is given as, for example, (0/+) where 0 would be the p62/actin assay activity and + would be the LC3 assay activity.

[2] = tested on: LC3; test: LC3 marker assay (LC3-I to LC3-II conversion immunoblot);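 as to Activity (μM) 10, LC3 assay activity: HeLa cells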;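 as to Activity (μM) 100, LC3 assay activity: HeLa cells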;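 as to Activity (μM) 20, LC3 assay activity: HeLa cells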;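 as to Activity (μM) 30, LC3 assay activity: HeLa cells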;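 as to Activity (μM) 50, LC3 assay activity: HeLa cells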; type: cell-based; design: key: −: activity not reported; 0: decreased vs. WT; +: similar to WT; ++: modest increase vs. WT; +++: significant increase vs. WT; settings: for Activity (μM) 30, LC3 assay activity: 30 μM; for Activity (μM) 50, LC3 assay activity: 50 μM; for Activity (μM) 10, starred cell, LC3 assay activity: Table 8, 10 μM marked * (footnote: data taken at 20 instead of 30 μM); for Activity (μM) 100, LC3 assay activity: 100 μM; for Activity (μM) 10, LC3 assay activity: 10 μM
Procedure: as §1, §2

[3] = Table 8, control compound T25, first symbol
[4] = Table 8, control compound T25, second symbol
[5] = Table 3, control vehicle, first symbol
[6] = Table 3, control vehicle, second symbol
[7] = Table 6, control DMSO, first symbol
[8] = Table 6, control DMSO, second symbol

Sequence	Activity (μM) 30, p62/actin assay activity [1, 3]	Activity (μM) 50, p62/actin assay activity [1, 3]	Activity (μM) 10, starred cell, p62/actin assay activity ([1]; first symbol)	Activity (μM) 30, LC3 assay activity [2, 4]	Activity (μM) 50, LC3 assay activity [2, 4]	Activity (μM) 10, starred cell, LC3 assay activity ([2]; second symbol)	Activity (μM) 10, p62/actin assay activity [1, 7]	Activity (μM) 30, p62/actin assay activity [1, 7]	Activity (μM) 50, p62/actin assay activity [1, 7]	Activity (μM) 100, p62/actin assay activity [1, 7]	Activity (μM) 10, LC3 assay activity [2, 8]	Activity (μM) 30, LC3 assay activity [2, 8]	Activity (μM) 50, LC3 assay activity [2, 8]	Activity (μM) 100, LC3 assay activity [2, 8]	other results
VCNACFHIWH [Compound 70]	0/0	0	0/0*	0/0	+	0/0*									
VCNACFHIWH [Compound 71]	0	0	0	++	+++	+									
VCNACFHIWH [Compound 72]	0/0	+	0/0*	0/0	++	0/0*									
VCNACFHIWH [Compound 73]	0	+	0/0*	+	+++	0/0*									
VCNACFHIWH [Compound 74]	0	+++/+++	0	++	+++/+++	+									
VCNATCHIRIWH (H-V[dC]NAT[dC]HIRIWH; linker 2-6 via MP (inferred); not fully specified (C-terminus); reading uncertain) [Compound 37]		0/0			0/0										Activity (μM) 100, p62/actin assay activity [1, 3]: 0/0; Activity (μM) 100, LC3 assay activity [2, 4]: 0/0
VCNATCHIWH [Compound 2]	0/0	0	0/0*	0/0	+	0/0*									Activity (μM) 10, p62/actin assay activity ([1]; Table 3, control vehicle, first symbol of cell): 0/0; Activity (μM) 20, p62/actin assay activity ([1]; 20 μM, Table 3, control vehicle, first symbol): 0/0; Activity (μM) 50, p62/actin assay activity [1, 5]: 0/0; Activity (μM) 100, p62/actin assay activity [1, 5]: 0/0; Activity (μM) 10, LC3 assay activity ([2]; Table 3, control vehicle, second symbol of cell): 0/0; Activity (μM) 20, LC3 assay activity ([2]; 20 μM, Table 3, control vehicle, second symbol): 0/0; Activity (μM) 50, LC3 assay activity [2, 6]: 0/0; Activity (μM) 100, LC3 assay activity [2, 6]: 0/0
VCNATCHIWH [Compound 18]							0/0	0/0	0/0	0/0	0/0	0/0	0/0	0/0	
VCNATCHIWH [Compound 19]							+	++	++	+++	0	0	+	+	
VCNATCHIWH [Compound 20]							++/++	+++	+++	+++	++/++	++	++	++	
VCNATCHIWH [Compound 21]							++	+++	+++	+++	0	0	0	0	
VCNATCHIWH [Compound 22]							+++	+++	+++	+++	+	+	++	+	
